Results taken from patent US11180462B2, “Microbiocidal oxadiazole derivatives” (SYNGENTA PARTICIPATIONS AG, priority 2015, dated 2021).

What was measured:
[1] = system: Puccinia recondita f. Sp. Tritici; experiment: Fungicidal activity against Puccinia recondita f. sp. tritici / wheat / leaf disc preventative (brown rust); type: in vivo; settings: foliar, 200 ppm in the applied formulation, wheat leaf segments, preventative, compared to untreated control leaf disks, read-out: disease control
Method in brief: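 200 ppm spray on wheat cv. Kanzler leaf segments; spore inoculation +1 day; 19° C., 75% rh, 12 h/12 h light cycle; single rating of % control vs untreated at 7 to 9 days.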

[2] = system: Puccinia recondita f. Sp. Tritici; experiment: Fungicidal activity against Puccinia recondita f. sp. tritici / wheat / leaf disc curative (brown rust); type: in vivo; settings: foliar, 24 h, 200 ppm in the applied formulation, wheat leaf segments, curative (applied 1 day after inoculation), compared to untreated control leaf disks, read-out: disease control
Method in brief: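 Scoring is percent disease control relative to untreated segments, made 6 to 8 days after treatment. Wheat (cv. Kanzler) leaf segments received the formulated, water-diluted compound one day post-inoculation with spores, having been kept dark at 19° C and 75% RH, then incubated under 12 h light/12 h dark at the same temperature and humidity.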

[3] = system: Glomerella lagenarium (Colletotrichum lagenarium); experiment: Fungicidal activity against Glomerella lagenarium (Colletotrichum lagenarium) liquid culture / cucumber / preventative (anthracnose); type: cell-based; settings: Colletotrichum orbiculare; 20 ppm in the applied formulation; liquid culture (PDB), growth inhibition measured photometrically after 3 to 4 days; compared to untreated control; read-out: disease control
Method in brief: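 Percent activity against the untreated check was derived from photometric growth measurements made 2 to 7 days after conidia in potato dextrose broth were combined with compound at 20 ppm. Cultures were kept dark at 24 °C and 96% humidity.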

O=C(C1OCCO1)N(Cc1ccc(-c2noc(C(F)(F)F)n2)cc1)Cc1ccco1 [Compound 1.473, N-(2-furylmethyl)-N-[[4-[5-(trifluoromethyl)-1,2,4-oxadiazol-3-yl]phenyl]methyl]-1,3-dioxolane-2-carboxamide]
≥ 80%: pest or weed control at 200 ppm [1] | pest or weed control at 200 ppm [2] | inhibition of growth at 20 ppm [3]

C#CC(=O)N(Cc1ccc(-c2noc(C(F)(F)F)n2)cc1)C(C)CC (stereo not drawn) [Compound 1.391, N-sec-butyl-N-[[4-[5-(trifluoromethyl)-1,2,4-oxadiazol-3-yl]phenyl]methyl]-prop-2-ynamide]
≥ 80%: pest or weed control at 200 ppm [1] | pest or weed control at 200 ppm [2] | inhibition of growth at 20 ppm [3]

CCC(C)N(Cc1ccc(-c2noc(C(F)(F)F)n2)cc1)C(=O)C1CC1(F)F (stereo not drawn) [Compound 1.371, 2,2-difluoro-N-sec-butyl-N-[[4-[5-(trifluoromethyl)-1,2,4-oxadiazol-3-yl]phenyl]methyl]-cyclopropane-carboxamide]
≥ 80%: pest or weed control at 200 ppm [1] | pest or weed control at 200 ppm [2] | inhibition of growth at 20 ppm [3]

CCN(Cc1ccc(-c2noc(C(F)(F)F)n2)cc1)C(=O)N(C)C1CCC1 [Compound 3.101, 1-cyclobutyl-3-ethyl-1-methyl-3-[[4-[5-(trifluoromethyl)-1,2,4-oxadiazol-3-yl]phenyl]methyl]urea]
≥ 80%: pest or weed control at 200 ppm [1] | pest or weed control at 200 ppm [2] | inhibition of growth at 20 ppm [3]

COCCN(Cc1ccc(-c2noc(C(F)(F)F)n2)cc1)C(=O)C1CSC1 [Compound 1.334]
≥ 80%: pest or weed control at 200 ppm [1] | pest or weed control at 200 ppm [2] | inhibition of growth at 20 ppm [3]

COC(=O)N(Cc1ccc(-c2noc(C(F)(F)F)n2)cc1)CC(F)(F)F [Compound 2.22, methyl N-(2,2,2-trifluoroethyl)-N-[[4-[5-(trifluoromethyl)-1,2,4-oxadiazol-3-yl]phenyl]methyl]-carbamate]
≥ 80%: pest or weed control at 200 ppm [1] | pest or weed control at 200 ppm [2] | inhibition of growth at 20 ppm [3]

COCCN(C)C(=O)N(C)Cc1ccc(-c2noc(C(F)(F)F)n2)cc1 [Compound 3.67, 1-(2-methoxyethyl)-1,3-dimethyl-3-[[4-[5-(trifluoromethyl)-1,2,4-oxadiazol-3-yl]phenyl]methyl]urea]
≥ 80%: pest or weed control at 200 ppm [1] | pest or weed control at 200 ppm [2] | inhibition of growth at 20 ppm [3]

CCN(Cc1ccc(-c2noc(C(F)(F)F)n2)cc1)C(=O)N(C)C(C)C [Compound 3.98, 1-ethyl-3-isopropyl-3-methyl-1-[[4-[5-(trifluoromethyl)-1,2,4-oxadiazol-3-yl]phenyl]methyl]urea]
≥ 80%: pest or weed control at 200 ppm [1] | pest or weed control at 200 ppm [2] | inhibition of growth at 20 ppm [3]

COCCC(=O)N(OC)C(C)c1ccc(-c2noc(C(F)(F)F)n2)cc1 (stereo not drawn) [Compound 1.260, N,3-dimethoxy-N-[1-[4-[5-(trifluoromethyl)-1,2,4-oxadiazol-3-yl]phenyl]ethyl]-propanamide]
≥ 80%: pest or weed control at 200 ppm [1] | pest or weed control at 200 ppm [2] | inhibition of growth at 20 ppm [3]

CCN(Cc1ccc(-c2noc(C(F)(F)F)n2)cc1)C(=O)N(C)C1CC1 [Compound 3.90, 1-cyclopropyl-3-ethyl-1-methyl-3-[[4-[5-(trifluoromethyl)-1,2,4-oxadiazol-3-yl]phenyl]methyl]urea]
≥ 80%: pest or weed control at 200 ppm [1] | pest or weed control at 200 ppm [2] | inhibition of growth at 20 ppm [3]

COCCN(C)C(=O)N(Cc1ccc(-c2noc(C(F)(F)F)n2)cc1)OC [Compound 3.63, 1-methoxy-3-(2-methoxyethyl)-3-methyl-1-[[4-[5-(trifluoromethyl)-1,2,4-oxadiazol-3-yl]phenyl]methyl]urea]
≥ 80%: pest or weed control at 200 ppm [1] | pest or weed control at 200 ppm [2] | inhibition of growth at 20 ppm [3]

COCCC(=O)N(Cc1ccc(-c2noc(C(F)(F)F)n2)cc1)Cc1ccco1 [Compound 1.456, N-(2-furylmethyl)-3-methoxy-N-[[4-[5-(trifluoromethyl)-1,2,4-oxadiazol-3-yl]phenyl]methyl]-propanamide]
≥ 80%: pest or weed control at 200 ppm [1] | pest or weed control at 200 ppm [2] | inhibition of growth at 20 ppm [3]

CCC(COC)C(=O)N(Cc1ccc(-c2noc(C(F)(F)F)n2)cc1)CC1CC1 (stereo not drawn) [Compound 1.237, N-(cyclopropylmethyl)-2-(methoxymethyl)-N-[[4-[5-(trifluoromethyl)-1,2,4-oxadiazol-3-yl]phenyl]methyl]-butanamide]
≥ 80%: pest or weed control at 200 ppm [1] | pest or weed control at 200 ppm [2] | inhibition of growth at 20 ppm [3]

CON(C(=O)C1OCCO1)C(C)c1ccc(-c2noc(C(F)(F)F)n2)cc1 (stereo not drawn) [Compound 1.276, N-methoxy-N-[1-[4-[5-(trifluoromethyl)-1,2,4-oxadiazol-3-yl]phenyl]ethyl]-1,3-dioxolane-2-carboxamide]
≥ 80%: pest or weed control at 200 ppm [1] | pest or weed control at 200 ppm [2] | inhibition of growth at 20 ppm [3]

CC=C(C)C(=O)N(Cc1ccc(-c2noc(C(F)(F)F)n2)cc1)C(C)CC (stereo not drawn) [Compound 1.374, 2-methyl-N-sec-butyl-N-[[4-[5-(trifluoromethyl)-1,2,4-oxadiazol-3-yl]phenyl]methyl]but-2-enamide]
≥ 80%: pest or weed control at 200 ppm [1] | pest or weed control at 200 ppm [2] | inhibition of growth at 20 ppm [3]

CN(CC#N)C(=O)N(C)Cc1ccc(-c2noc(C(F)(F)F)n2)cc1 [Compound 3.70, 1-(cyanomethyl)-1,3-dimethyl-3-[[4-[5-(trifluoromethyl)-1,2,4-oxadiazol-3-yl]phenyl]methyl]urea]
≥ 80%: pest or weed control at 200 ppm [1] | pest or weed control at 200 ppm [2] | inhibition of growth at 20 ppm [3]

COCCN(Cc1ccc(-c2noc(C(F)(F)F)n2)cc1)C(C)=O [Compound 1.364, N-(2-methoxyethyl)-N-[[4-[5-(trifluoromethyl)-1,2,4-oxadiazol-3-yl]phenyl]methyl]-acetamide]
≥ 80%: pest or weed control at 200 ppm [1] | pest or weed control at 200 ppm [2] | inhibition of growth at 20 ppm [3]

CC1CC1C(=O)N(Cc1ccc(-c2noc(C(F)(F)F)n2)cc1)Cc1ccco1 (stereo not drawn) [Compound 1.460, N-(2-furylmethyl)-2-methyl-N-[[4-[5-(trifluoromethyl)-1,2,4-oxadiazol-3-yl]phenyl]methyl]-cyclopropane-carboxamide]
≥ 80%: pest or weed control at 200 ppm [1] | pest or weed control at 200 ppm [2] | inhibition of growth at 20 ppm [3]

O=C(C1OCCO1)N(Cc1ccc(-c2noc(C(F)(F)F)n2)cc1)CC1CCCO1 (stereo not drawn) [Compound 1.447, N-(tetrahydrofuran-2-ylmethyl)-N-[[4-[5-(trifluoromethyl)-1,2,4-oxadiazol-3-yl]phenyl]methyl]-1,3-dioxolane-2-carboxamide]
≥ 80%: pest or weed control at 200 ppm [1] | pest or weed control at 200 ppm [2] | inhibition of growth at 20 ppm [3]

CCN(Cc1ccc(-c2noc(C(F)(F)F)n2)cc1)C(=O)N(C)C1COC1 [Compound 3.91, 1-ethyl-3-methyl-3-(oxetan-3-yl)-1-[[4-[5-(trifluoromethyl)-1,2,4-oxadiazol-3-yl]phenyl]methyl]urea]
≥ 80%: pest or weed control at 200 ppm [1] | pest or weed control at 200 ppm [2] | inhibition of growth at 20 ppm [3]

COCCCC(=O)N(OC)C(C)c1ccc(-c2noc(C(F)(F)F)n2)cc1 (stereo not drawn) [Compound 1.280, N,4-dimethoxy-N-[1-[4-[5-(trifluoro-methyl)-1,2,4-oxadiazol-3-yl]phenyl]ethyl]-butanamide]
≥ 80%: pest or weed control at 200 ppm [1] | pest or weed control at 200 ppm [2] | inhibition of growth at 20 ppm [3]

CON(C(=O)C1CSC1)C(C)c1ccc(-c2noc(C(F)(F)F)n2)cc1 (stereo not drawn) [Compound 1.259, N-methoxy-N-[1-[4-[5-(trifluoromethyl)-1,2,4-oxadiazol-3-yl]phenyl]ethyl]-thietane-3-carboxamide]
≥ 80%: pest or weed control at 200 ppm [1] | pest or weed control at 200 ppm [2] | inhibition of growth at 20 ppm [3]

CCN(Cc1ccc(-c2noc(C(F)(F)F)n2)cc1)C(=O)N1CCCO1 [Compound 3.87, N-ethyl-N-[[4-[5-(trifluoromethyl)-1,2,4-oxadiazol-3-yl]phenyl]methyl]-isoxazolidine-2-carboxamide]
≥ 80%: pest or weed control at 200 ppm [1] | pest or weed control at 200 ppm [2] | inhibition of growth at 20 ppm [3]

CC=CC(=O)N(CCOC)Cc1ccc(-c2noc(C(F)(F)F)n2)cc1 [Compound 1.326, N-(2-methoxyethyl)-N-[[4-[5-(trifluoromethyl)-1,2,4-oxadiazol-3-yl]phenyl]methyl]but-2-enamide]
≥ 80%: pest or weed control at 200 ppm [1] | pest or weed control at 200 ppm [2] | inhibition of growth at 20 ppm [3]
